Key:
[1] = Determination of MTD in a Phase 1 study in patients with solid tumors; format: in vivo
Source text: A total of 13 patients with various solid tumors and with a median age of 66 years (range 40-79 years old) were enrolled in a human phase 1 clinical trial (see “Phase I Safety and Pharmacokinetic Study of ARRY-520 in Solid Tumors.” http://clinicaltrials.gov/ct2/show/NCT00462358, herein incorporated by reference). The solid tumors treated were breast cancer (2), colorectal cancer (2), non-small cell lung cancer (2), pancreatic cancer (2), bladder cancer, salivary gland cancer (adenoid cystic), esophageal cancer, mesothelioma cancer, and a mixed small cell lung cancer/non-small cell lung cancer. Compound 4 was provided for administration as a lyophilized powder contained in a Type 1 clear glass vial for IV use. The dose levels administered were 1.25 and 1.6 mg/m^2/day of Compound 4 on Days 1 and 2 every two weeks.

[2] = Tumor growth inhibition on different dosing schedules (HT-29), tolerability; format: in vivo; details: 10 mg/kg IP on days 1, 2, 3, 4 and 5; female nude mice with HT-29 xenografts
Procedure: Female nude mice were implanted subcutaneously with 5×10^6 HT-29 cells in 100 μL PBS. Eleven to fourteen days later, tumors were measured and mice randomized into groups of seven with average tumor volume in each group of approximately 230 mm^3. Compound 4 was dissolved in normal saline immediately prior to dosing, and administered IP at a volume of 10 mL/kg. Dosing was vehicle alone on day 1 and day 2; and Compound 4 at 20 mg/kg on day 1; 20 mg/kg on days 1 and 2; 20 mg/kg on days 1 and 3; 5 mg/kg on days 1, 2 and 3; 10 mg/kg on days 1, 2 and 3; 10 mg/kg on days 1, 2, 3, 4 and 5; 10 mg/kg on days 1 and 2; and 10 mg/kg on days 1 and 3. Animal weights and tumor volumes were measured (using electronic calipers) twice a week. Tumor volume was calculated using the formula: volume=(width^2×length)/2. Dosing at 10 mg/kg on days 1, 2, 3, 4 and 5 was not tolerated (greater than 20% weight loss and/or death in some of the mice).

[3] = Determination of MTD in nude mice (HT-29 xenograft study); details: mouse, in vivo; female nude mice with subcutaneous HT-29 xenografts; dissolved in normal saline
Procedure: Female nude mice were implanted subcutaneously with 5×10^6 HT-29 cells in 100 μL PBS. Ten days later, tumors were measured and mice randomized into groups of three with average tumor volume in each group of approximately 240 mm^3. Compound 4 was dissolved in normal saline immediately before dosing. It was determined that 20 mg/kg was the MTD for Compound 4. Dose volume was 10 mL/kg. Dosing was vehicle alone on day 1; and Compound 4 at 20 mg/kg on day 1; and 20 mg/kg on days 1 and 3. At various time points after dosing (24, 48, 72, 96, 120 and 144 hours), mice were euthanized by CO2 inhalation, and the tumors were harvested and immediately placed in formalin. The vehicle control group samples were collected 24 and 72 hours after dosing. The day 1 group samples were collected 24, 48, 72 and 96 hours after that dose. The day 1 and day 3 group samples were collected 72, 96, 120 and 144 hours after the first dose. Paraffin blocks of tumor tissue were prepared by standard procedures. […] Spindle structures were manually counted in three 40× areas of each sample, using a fluorescent microscope. Apoptosis was quantitated by manual counting of TUNEL positive cells, also in three 40× areas of each sample (TUNEL staining using the In Situ Cell Death Detection Kit, AP from Roche).

CON(C)C(=O)N1N=C(c2cc(F)ccc2F)S[C@@]1(CCCN)c1ccccc1 [Compound 4, (S)-2-(3-aminopropyl)-5-(2,5-difluorophenyl)-N-methoxy-N-methyl-2-phenyl-1,3,4-thiadiazole-3(2H)-carboxamide]
MTD ([1]; IV on Days 1 and 2 every two weeks, 13 patients with solid tumors, dose levels 1.25 and 1.6 mg/m^2/day): 1.25 mg/m^2/day
MTD, cumulative dose per cycle ([1]; IV on Days 1 and 2 every two weeks, patients with solid tumors): 2.5 mg/m^2
DLTs ([1]; human, in vivo, iv): Grade 3 hyponatremia, anorexia, AST increase and febrile neutropenia
tolerability of dosing schedule [2]: not tolerated
weight loss and/or death in some of the mice [2]: greater than 20%
MTD [3]: 20 mg/kg
